Like-named read-outs stand apart in the source and are kept apart here.

We go through 23 compounds from US12435061B2 (priority 2020, dated 2025).

The target in the assay is hTRPV3 (Homo sapiens (Human), UniProt Q8NET8). Kind of assay: Whole-cell patch clamp, hTRPV3 Phase 1 / Phase 2 currents. In kind it is cell-based. The essentials:
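Currents are activated by 20 μM 2-APB or by perfusate at 28 °C or warmer, in Ringer's solution, and quantified at ±80 mV.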

Where [1] appears, read: Phase 1 current, inward, whole-cell patch clamp, read-out: hTRPV3 Patch P1 Inwd.
Setting [2] is: Phase 1 current, read-out: hTRPV3 (nM) (Phase 1).
Where [3] appears, read: Phase 2 current, inward, whole-cell patch clamp, read-out: hTRPV3 Patch P2 Inwd.
The mark [4] stands for this setting: Phase 2 current, read-out: hTRPV3 (nM) (Phase 2).

Sequence of hTRPV3 (Q8NET8 whole entry): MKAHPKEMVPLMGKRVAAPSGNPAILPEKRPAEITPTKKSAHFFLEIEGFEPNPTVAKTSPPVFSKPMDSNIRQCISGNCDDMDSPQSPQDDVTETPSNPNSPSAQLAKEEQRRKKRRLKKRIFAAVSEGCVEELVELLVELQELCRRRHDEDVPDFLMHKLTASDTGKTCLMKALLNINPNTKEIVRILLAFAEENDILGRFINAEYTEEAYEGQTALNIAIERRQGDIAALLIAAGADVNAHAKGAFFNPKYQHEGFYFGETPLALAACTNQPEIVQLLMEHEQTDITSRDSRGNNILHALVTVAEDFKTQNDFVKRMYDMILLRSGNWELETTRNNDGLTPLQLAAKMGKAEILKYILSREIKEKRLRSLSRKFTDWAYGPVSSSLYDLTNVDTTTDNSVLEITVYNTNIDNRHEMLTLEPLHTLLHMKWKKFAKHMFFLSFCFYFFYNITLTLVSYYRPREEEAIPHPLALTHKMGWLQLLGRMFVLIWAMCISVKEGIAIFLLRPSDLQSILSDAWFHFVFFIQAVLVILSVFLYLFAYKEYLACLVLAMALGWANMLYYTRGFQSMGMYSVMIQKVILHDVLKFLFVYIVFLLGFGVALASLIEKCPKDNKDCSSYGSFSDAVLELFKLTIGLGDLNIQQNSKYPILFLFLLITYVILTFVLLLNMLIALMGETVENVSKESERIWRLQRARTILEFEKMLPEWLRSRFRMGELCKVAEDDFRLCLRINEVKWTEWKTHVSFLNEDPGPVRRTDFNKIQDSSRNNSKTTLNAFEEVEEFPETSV

Take `CCOC(=O)c1nc(-c2ccccc2)sc1N1CC[C@H](Oc2ccc(C(F)(F)F)cn2)C1` [Compound 1-206, (S)-ethyl 2-phenyl-5-(3-(5-(trifluoromethyl)pyridin-2-yloxy)pyrrolidin-1-yl)thiazole-4-carboxylate]: the IC50 is, setting by setting: under setting [1], above 1000 nM; under setting [2], 2670 nM.
The corresponding values for `Cc1ccccc1-c1ccc(N2CC[C@H](Oc3ccc(F)cn3)C2)c(CO)n1` [Compound 1-207, (S)-(3-(3-(5-fluoropyridin-2-yloxy)pyrrolidin-1-yl)-6-o-tolylpyridin-2-yl)methanol] are 100 to 1000 nM and 283 nM.
With `CCc1ccccc1-c1ccc(N2CC[C@H](Oc3ccc(F)cn3)C2)c(CO)n1` [Compound 1-208], the IC50 reads like this: under setting [1], above 1000 nM; under setting [3], 100 to 1000 nM.
As to `N#Cc1ccccc1-c1ccc(N2CC[C@H](Oc3ccc(F)cn3)C2)c(CO)n1` [Compound 1-210, (S)-2-(5-(3-(5-fluoropyridin-2-yloxy)pyrrolidin-1-yl)-6-(hydroxymethyl)pyridin-2-yl)benzonitrile], the IC50 by setting is: under setting [1], 100 to 1000 nM; under setting [2], 972 nM.
`Cc1ccc(O[C@H]2CCN(c3ccc(Oc4ccccc4)nc3CO)C2)nc1` [Compound 1-211]: the IC50 by setting is: under setting [1], 100 to 1000 nM; under setting [2], 931 nM; under setting [3], 100 to 1000 nM; under setting [4], 936 nM.
For `COc1ccccc1-c1ccc(N2CC[C@H](Oc3ncccc3F)C2)c(CO)n1` [Compound 1-213, (S)-(3-(3-(3-fluoropyridin-2-yloxy)pyrrolidin-1-yl)-6-(2-methoxyphenyl)pyridin-2-yl)methanol], the IC50 is, setting by setting: under setting [1], above 1000 nM; under setting [2], 2790 nM.
On to `CCc1ccccc1Oc1ccc(N2CC[C@H](Oc3ccc(C)cn3)C2)c(CO)n1` [Compound 1-214, (S)-(6-(2-ethylphenoxy)-3-(3-(5-methylpyridin-2-yloxy)pyrrolidin-1-yl)pyridin-2-yl)methanol], for which the “hTRPV3 (nM) (Phase 1)” value (Phase 1 current) is “Incomplete Block (Phase 1)”.
For `Cc1ccc(O[C@H]2CCN(c3ccc(-c4ccccc4)nc3CCO)C2)nc1` [Compound 1-215], the IC50 is above 1000 nM under setting [1] and 1000 nM under setting [2].
For the compound `Cc1ccccc1-c1ccc(N2CC[C@H](Oc3ncccc3F)C2)c(CO)n1` [Compound 1-216, (S)-(3-(3-(3-fluoropyridin-2-yloxy)pyrrolidin-1-yl)-6-o-tolylpyridin-2-yl)methanol], the IC50 runs as follows: under setting [1], above 1000 nM; under setting [2], 1160 nM.
On the same counts, the results for `N#Cc1ccccc1-c1ccc(N2CC[C@H](Oc3ncccc3F)C2)c(CO)n1` [Compound 1-217, (S)-2-(5-(3-(3-fluoropyridin-2-yloxy)pyrrolidin-1-yl)-6-(hydroxymethyl)pyridin-2-yl)benzonitrile] are above 1000 nM and 3900 nM.
As to `CCc1ccccc1-c1ccc(N2CC[C@H](Oc3ccc(C)cn3)C2)c(CCO)n1` [Compound 1-218, (S)-2-(6-(2-ethylphenyl)-3-(3-(5-methylpyridin-2-yloxy)pyrrolidin-1-yl)pyridin-2-yl)ethanol], the IC50 under setting [1] lay within 100 to 1000 nM and the IC50 under setting [2] is 614 nM.
The corresponding values for `Cc1cccc(Oc2ccc(N3CC[C@H](Oc4ncccc4Cl)C3)c(CO)c2)c1` [Compound 1-242, (S)-(2-(3-(3-chloropyridin-2-yloxy)pyrrolidin-1-yl)-5-(m-tolyloxy)phenyl)methanol] are 10 to 100 nM and 37 nM.
Turning to `Cc1ccc(O[C@H]2CCN(c3ccc(-c4ccccn4)nc3CO)C2)nc1` [Compound 1-244, (S)-(5-(3-(5-methylpyridin-2-yloxy)pyrrolidin-1-yl)-2, 2′-bipyridin-6-yl)methanol], the IC50 is above 1000 nM under setting [1] and 4650 nM under setting [2].
On the same counts, the results for `OCc1nc(-c2ncccn2)ccc1N1CC[C@H](Oc2ccc(C(F)(F)F)cn2)C1` [Compound 1-245, (S)-(6-(pyrimidin-2-yl)-3-(3-(5-(trifluoromethyl)pyridin-2-yloxy)pyrrolidin-1-yl)pyridin-2-yl)methanol] are above 1000 nM and above 3200 nM.
With `N#Cc1ccc(-c2ccc(N3CC[C@H](Oc4ccc(C(F)(F)F)cn4)C3)c(CO)c2)cc1` [Compound 1-252, (S)-3′-(hydroxymethyl)-4′-(3-(5-(trifluoromethyl)pyridin-2-yloxy)pyrrolidin-1-yl)biphenyl-4-carbonitrile], the IC50 is, setting by setting: under setting [1], 100 to 1000 nM; under setting [2], 886 nM.
The corresponding values for `NC(=O)c1ccc(-c2ccc(N3CC[C@H](Oc4ccc(C(F)(F)F)cn4)C3)c(CO)c2)cc1` [Compound 1-253, (S)-3′-(hydroxymethyl)-4′-(3-(5-(trifluoromethyl)pyridin-2-yloxy)pyrrolidin-1-yl)biphenyl-4-carboxamide] are above 1000 nM and above 3200 nM.
As to `OCc1cc(-c2ccccn2)ccc1N1CC[C@H](Oc2ccc(C(F)(F)F)cn2)C1` [Compound 1-254, (S)-(5-(pyridin-2-yl)-2-(3-(5-(trifluoromethyl)pyridin-2-yloxy)pyrrolidin-1-yl)phenyl) methanol], the IC50 reads like this: under setting [1], above 1000 nM; under setting [2], 1290 nM.
Take `Cc1cccnc1-c1ccc(N2CC[C@H](Oc3ccc(C(F)(F)F)cn3)C2)c(CO)c1` [Compound 1-255, (S)-(5-(3-methylpyridin-2-yl)-2-(3-(5-(trifluoromethyl)pyridin-2-yloxy)pyrrolidin-1-yl)phenyl)methanol]: the IC50 under setting [1] was in the range of 100 to 1000 nM and the IC50 under setting [2] is 806 nM.
The corresponding values for `Cc1ccc(O[C@H]2CCN(c3ccc(-c4ccccc4CN(C)C(=O)OC(C)(C)C)nc3CO)C2)nc1` [Compound 1-258, (S)-tert-butyl 2-(6-(hydroxymethyl)-5-(3-(5-methylpyridin-2-yloxy)pyrrolidin-1-yl)pyridin-2-yl)benzyl (methyl)carbamate] are 100 to 1000 nM and 276 nM.
For the compound `Cc1ccc(O[C@H]2CCN(c3ccc(-c4ncccc4C)cc3CO)C2)nc1` [Compound 1-259, (S)-(5-(3-methylpyridin-2-yl)-2-(3-(5-methylpyridin-2-yloxy)pyrrolidin-1-yl)phenyl) methanol], the IC50 runs as follows: under setting [1], above 1000 nM; under setting [2], 3050 nM; under setting [3], above 1000 nM; under setting [4], 2260 nM.
`CCc1ccccc1C(O)c1ccc(N2CC[C@H](Oc3ncccc3Cl)C2)c(CO)c1` (stereo partly drawn) [Compound 1-260, (4-((S)-3-(3-chloropyridin-2-yloxy)pyrrolidin-1-yl)-3-(hydroxymethyl)phenyl)(2-ethylphenyl)methanol]: the IC50 reads like this: under setting [1], above 1000 nM; under setting [2], 3150 nM.
`OCc1ccc(-c2ccc(N3CC[C@H](Oc4ccc(C(F)(F)F)cn4)C3)c(CO)c2)cc1` [Compound 1-261, (S)-(4-(3-(5-(trifluoromethyl)pyridin-2-yloxy)pyrrolidin-1-yl)biphenyl-3,4′-diyl)dimethanol]: the IC50 is 100 to 1000 nM under setting [1] and 604 nM under setting [2].
Turning to `O=C(c1ccc(N2CC[C@H](Oc3ncccc3Cl)C2)c(CO)c1)c1ccccc1Cl` [Compound 1-263, (S)-(2-chlorophenyl)(4-(3-(3-chloropyridin-2-yloxy)pyrrolidin-1-yl)-3-(hydroxymethyl)phenyl)methanone], the IC50 is 100 to 1000 nM under setting [1] and 444 nM under setting [2].
